{"source": "patent US20190352341A1", "about": "“MODIFIED PEPTIDES AND THEIR USE FOR TREATING SYSTEMIC LUPUS ERYTHEMATOSUS” (IMMUPHARMA FRANCE SA, priority 2018, published 2019)", "key": {"C57BL/6 mice": {"tested_on": "C57BL/6 mice", "assay": "DSS-induced mouse model of colonic inflammation", "format": "in vivo", "from_the_text": "Normal mice (C57BL/6; 7 week-old; males) have received the P140 peptide ([…], iv route; 10 mice) or saline only (control group; 10 mice) at days −2 and −1. At day 0, dextran sodium sulfate (DSS; 2-3%) was administrated to induce the disease.\nAnimals were examined every day for body weight loss, stool consistency, diarrhea, and blood in the feces. The animals were sacrificed around day 14 or at any time if they are very sick (loss >25% body weight). Statistics: Mann-Whitney (exact)"}, "MRL/lpr B cells": {"tested_on": "MRL/lpr B cells", "conditions": "cited from earlier work"}, "Balb/c mice": {"tested_on": "Balb/c mice", "assay": "15-day ovalbumin-induced airway hypereosinophilia model, BAL cells", "format": "in vivo, mouse", "parameters": "Eosinophils / Neutrophils / T cells / B cells: unit not given here", "conditions": "for B cells / Eosinophils / Macrophages / Neutrophils / T cells / Total cells: BAL", "experimental": "The P140 phosphopeptide was solubilized in sterile water (Braun) and 10× concentrate sterile saline was added to adjust osmolarity to 300 mosm. Osmolarity was controlled with a micro osmometer (Loser, type 15) and validated (302 mosm).\nThe P140 phosphopeptide was used in vivo at the dose of 4 mg/kg by intranasal (i.n.) and intravenous (i.v.) routes. Control animals received equivalent volumes (1 ml/kg for i.n. and 2 ml/kg for i.v.) of saline (Table 6).\nNine-week-old male Balb/c mice were sensitized by intraperitoneal (i.p.) injections of a mixture containing 50 μg OVA (Sigma-Aldrich) and 2 mg alum (Sigma-Aldrich) in 0.1 ml saline. Mice were challenged by i.n. administration of 25 μl of OVA on day 5, then 25 μl of OVA and/or saline on day 12, 13 and 14. Mice were treated by i.v. injection (2 ml/kg) or i.n. administration (1 ml/kg) of P140 or solvent on day 9 (See FIG. 12).\n[…] Performing Bronchoalveolar Lavage in the Mouse. Curr Protoc Mouse Biol 2:167-175). Mice were anaesthetized IP (Ketamine 150 mg/kg-Xylasine 10 mg/kg). Blood was collected from the heart, centrifuged at 10,000 g for 2 min and serum stored at −20° C. After semi-excision of the trachea, a plastic cannula was inserted, and airspace washed with 0.5 ml of 0.9% NaCl injected with a 1 ml syringe. This procedure was performed 10 times. The initial concentrated supernatant of the 2 first lavages (volume=2×0.5 ml administered, ˜0.5 ml recovered) was collected for cytokine measurements. The remaining BAL fluid was centrifuged (300 g for 5 min, 4° C.), and cell pellets pooled. The cell pellet was suspended in 500 μl of 0.9% NaCl and used for total cell counts evaluated on a Muse® Cell Analyser. Differential cell counts were assessed by flow cytometry (LSRII® cytometer, BD Bioscience). BAL cells were added with FCblock (0.5 μl, 553142, BD Bioscience) in a black microplate, incubated for 20 min at room temperature. Then, marker antibodies were added: CD11c-FITC (557400, BD bioscience), Gr-1-Pe-eFluor610 (61-5931-82, eBioscience), CD11b-APC-Cy7 (557657, BD bioscience), CD45-AlexaFluor700 (103128, BioLegend), CD3-BV605 (564009, BD bioscience), CD19-PE-Cy7 (552854, BD bioscience). Antibodies were incubated with BAL cells for 30 min at room temperature before DAPI (5 μl, BD bioscience) addition, and flow cytometry was performed immediately.\nData are presented as means±SEM. Differences between groups were tested for statistical significance using one-way ANOVA followed by Tukey's post-test. For statistical analysis, control groups 1, 2 and 3 were pooled."}, "CD4+ T splenocytes": {"tested_on": "CD4+ T splenocytes", "assay": "Collagen-induced arthritis (CIA) mouse model, ex vivo T splenocyte proliferation", "format": "in vivo", "conditions": "DBA/1 CIA mice, peptide i.v. day −1, +7, +14, +20; 100 μg CII/mL, CFSE assay by FACS", "experimental": "Next, P140 peptide was administered in a model of mice that develop a RA-like disease (we anticipated to use this mouse model as a negative control of MRL/lpr-lupus prone mice). This model, called collagen-induced arthritis (CIA) mouse model, is the most commonly studied autoimmune model of RA. In this model, autoimmune arthritis is induced by immunizing DBA/1 mice with an emulsion of complete Freund's adjuvant (CFA) and type II collagen (CII), and typically, the first signs of arthritis appear in 21-28 days after immunization (Brand et al., 2007). CIA shares several pathological features with human RA, and CII is a major protein in cartilage, the target tissue of RA. Pathological features include synovial hyperplasia, mononuclear cell infiltration, and cartilage degradation. Susceptibility in these mice is linked to the expression of specific MHC class II genes, DBA/1 have H-2^q haplotype.\nP140 peptide was thus administrated intravenously to DBA/1 mice at day −1, +7, +14 and +20 in a setting close to the one we used in MRL/lpr mice ([…]). CII in CFA was injected at days+1 and +21 (200 μg, intradermal route). Mouse weight and their clinical score were followed using very classical procedure. Biological parameters were also evaluated (i.e. T cell response, antibody response, joint histology, etc)."}, "[1]": {"conditions": "P140 iv at days −2 and −1, DSS from day 0, vs saline group"}, "[2]": {"conditions": "OVA challenge, P140-IN 4 mg/kg day 9, individual mice NL415-2_6 to _20"}, "[3]": {"conditions": "OVA challenge, P140-IN, 4 mg/kg day 9, individual mice NL415-2_12 to _22"}, "[4]": {"conditions": "saline challenge, P140-IN 4 mg/kg day 9, individual mice NL415-2_2, _8"}, "[5]": {"conditions": "saline challenge, P140-IN, 4 mg/kg day 9, individual mice NL415-2_4, _15"}, "[6]": {"conditions": "i.v. 4 mg/kg, OVA-challenged mice"}}, "note": "Values joined by “and” are separate entries in the source; they are usually repeats but may differ in a detail not shown here. Identical values can stand only once. Numbered stars: 1 amine (or outer) side, 2 acyl side, 3 side chain; on linkers, the order of the positions; unused ones are H or OH. Square brackets hold non-standard residues; d marks the D form. Peptide text beside a SMILES is read from it. ξ: configuration not given here. X1 = CSCC[C@H](NC(=N)[C@H](Cc1c[nH]cn1)N[*:1])C(=O)[*:2]; pS = N[C@@H](COP(=O)(O)O)C(=O)O; Ile(3ξ) = CCC(C)[C@H](N)C(=O)O"}
{"smiles": "CCC(C)[C@H](NC(=O)[C@H](Cc1ccccc1)NC(=O)[C@H](C)NC(=O)[C@H](Cc1ccc(O)cc1)NC(=O)CNC(=O)[C@H](CCCNC(=N)N)NC(=O)[C@@H]1CCCN1C(=O)[C@H](CCCCN)NC(=O)CNC(=O)[C@H](COP(=O)(O)O)NC(=O)[C@H](CCCNC(=N)N)NC(=O)[C@H](CCCCN)NC(=O)[C@H](CO)NC(=O)[C@H](Cc1ccc(O)cc1)NC(=O)[C@@H](NC(=O)[C@H](CCSC)NC(=N)[C@H](Cc1c[nH]cn1)NC(=O)[C@@H](NC(=O)[C@@H](N)CCCNC(=N)N)C(C)CC)C(C)C)C(=O)N[C@@H](CCC(=O)O)C(=O)N[C@@H](Cc1ccc(O)cc1)C(=O)O", "note": "(stereo partly shown) [Compound P140] (H-R[Ile(3ξ)][X1]VYSKR[pS]GKPRGYAF[Ile(3ξ)]EY-OH)", "values": [{"measurement": "Body weight", "setting": "C57BL/6 mice; [1]", "value": "No difference"}, {"measurement": "Colon size", "setting": "C57BL/6 mice; [1]", "value": "significant increase"}, {"measurement": "DAI (disease activity index)", "setting": "C57BL/6 mice; [1]", "value": "Little difference"}, {"measurement": "Day at which blood appeared in the feces", "setting": "C57BL/6 mice; control groups day +6", "value": "+8 day"}, {"measurement": "Autophagy markers SQSTM1 and MAP1LC3 in MRL/lpr B cells", "setting": "MRL/lpr B cells; after P140 treatment (Page et al., 2011)", "value": "accumulation"}, {"measurement": "Expression of HSPA8 and LAMP-2A in MRL/lpr B cells", "setting": "MRL/lpr B cells; after treating mice with P140 peptide (Page et al., 2011; Macri et al.)", "value": "down-regulated"}, {"measurement": "B cells", "setting": "Balb/c mice; [2]", "value": "25 606 and 32 251 and 26 562 and 23 383 and 33 156 and 13 236"}, {"measurement": "Eosinophils", "setting": "Balb/c mice; [2]", "value": "490 306 and 497 948 and 737 671 and 839 841 and 792 249 and 615 171"}, {"measurement": "Macrophages", "setting": "Balb/c mice; [2]", "value": "271 110 and 322 340 and 247 391 and 538 954 and 436 210 and 286 509"}, {"measurement": "Neutrophils", "setting": "Balb/c mice; [2]", "value": "57 542 and 60 787 and 62 354 and 95 173 and 47 346 and 65 366"}, {"measurement": "T cells", "setting": "Balb/c mice; [2]", "value": "44 036 and 61 800 and 73 159 and 118 360 and 101 951 and 61 293"}, {"measurement": "Total cells", "setting": "Balb/c mice; [2]", "value": "862 995 and 942 875 and 1 120 576 and 1 592 328 and 1 377 755 and 1 028 339"}, {"measurement": "B cells", "setting": "Balb/c mice; [3]", "value": "10 219 and 15 209 and 14 027 and 17 417 and 11 003 and 10 922"}, {"measurement": "Eosinophils", "setting": "Balb/c mice; [3]", "value": "425 928 and 272 763 and 473 105 and 470 027 and 327 186 and 429 469"}, {"measurement": "Macrophages", "setting": "Balb/c mice; [3]", "value": "439 265 and 442 055 and 244 523 and 293 070 and 342 134 and 379 565"}, {"measurement": "Neutrophils", "setting": "Balb/c mice; [3]", "value": "42 783 and 21 442 and 59 616 and 76 867 and 40 275 and 31 756"}, {"measurement": "T cells", "setting": "Balb/c mice; [3]", "value": "41 744 and 43 881 and 32 677 and 55 502 and 28 857 and 45 030"}, {"measurement": "Total cells", "setting": "Balb/c mice; [3]", "value": "949 720 and 780 142 and 809 921 and 895 467 and 738 452 and 885 821"}, {"measurement": "B cells", "setting": "Balb/c mice; [4]", "value": "112 and 242"}, {"measurement": "Eosinophils", "setting": "Balb/c mice; [4]", "value": "168 and 103"}, {"measurement": "Macrophages", "setting": "Balb/c mice; [4]", "value": "388 102 and 434 029"}, {"measurement": "Neutrophils", "setting": "Balb/c mice; [4]", "value": "56 and 61"}, {"measurement": "T cells", "setting": "Balb/c mice; [4]", "value": "4 135 and 4 180"}, {"measurement": "Total cells", "setting": "Balb/c mice; [4]", "value": "392 461 and 438 573"}, {"measurement": "B cells", "setting": "Balb/c mice; [5]", "value": "70 and 266"}, {"measurement": "Eosinophils", "setting": "Balb/c mice; [5]", "value": "110 and 166"}, {"measurement": "Macrophages", "setting": "Balb/c mice; [5]", "value": "335 658 and 335 200"}, {"measurement": "Neutrophils", "setting": "Balb/c mice; [5]", "value": "259 and 133"}, {"measurement": "T cells", "setting": "Balb/c mice; [5]", "value": "5311 and 4 790"}, {"measurement": "Total cells", "setting": "Balb/c mice; [5]", "value": "341 738 and 340 389"}, {"measurement": "Number of cells recovered in BAL fluid as compared to vehicle (saline)", "setting": "Balb/c mice; i.n. or i.v., control mice challenged with saline", "value": "little effect per se"}, {"measurement": "Inflammatory cell recruitment in BAL", "setting": "Balb/c mice; i.n. route, OVA-challenged mice", "value": "little effect"}, {"measurement": "B cells recruitment in BAL, change vs OVA group", "setting": "Balb/c mice; [6]", "value": "−42", "unit": "%"}, {"measurement": "Eosinophil recruitment in BAL, change vs OVA group", "setting": "Balb/c mice; [6]", "value": "−50", "unit": "%"}, {"measurement": "T cells recruitment in BAL, change vs OVA group", "setting": "Balb/c mice; [6]", "value": "−66", "unit": "%"}, {"measurement": "Neutrophils recruitment in BAL, change vs OVA group", "setting": "Balb/c mice; i.v. 4 mg/kg, OVA-challenged mice, not significant", "value": "−38", "unit": "%"}, {"measurement": "CD4+ T splenocytes proliferation ex vivo in the presence of CII", "setting": "CD4+ T splenocytes", "value": "strongly diminished"}]}
